# Experimental data taken from PubChem BioAssay (NCI).
#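 96-well plates; 48 h exposure; 5 concentrations. Endpoints by linear interpolation between flanking doses. Not reached: highest tested concentration assigned. GI50: concentration for 50% inhibition of growth. The concentration for full growth arrest is given as TGI.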
# What was measured:
# Assay in all cases: NCI-60 cell line screen, 48 h
# OVCAR-4 ovarian = tested on: OVCAR-4 ovarian
# IGROV1 ovarian = tested on: IGROV1 ovarian
# SK-MEL-2 melanoma = tested on: SK-MEL-2 melanoma
# OVCAR-8 ovarian = tested on: OVCAR-8 ovarian
# CAKI-1 renal = tested on: CAKI-1 renal
# M19-MEL melanoma = tested on: M19-MEL melanoma
# SNB-78 CNS = tested on: SNB-78 CNS
# SNB-19 CNS = tested on: SNB-19 CNS
# MOLT-4 leukemia = tested on: MOLT-4 leukemia
# RPMI-8226 leukemia = tested on: RPMI-8226 leukemia
# HCT-116 colon = tested on: HCT-116 colon
# LXFL 529 NSCLC = tested on: LXFL 529 NSCLC
# HOP-92 NSCLC = tested on: HOP-92 NSCLC
# ACHN renal = tested on: ACHN renal
# A549 NSCLC = tested on: A549 NSCLC
# SK-MEL-28 melanoma = tested on: SK-MEL-28 melanoma
# NCI-H23 lung = tested on: NCI-H23 lung
# HCT-15 colon = tested on: HCT-15 colon
# SN12C renal = tested on: SN12C renal
# OVCAR-5 ovarian = tested on: OVCAR-5 ovarian
# SF-295 CNS = tested on: SF-295 CNS
# CCRF-CEM leukemia = tested on: CCRF-CEM leukemia
# SK-MEL-5 melanoma = tested on: SK-MEL-5 melanoma
# HT29 colon = tested on: HT29 colon
# SF-539 CNS = tested on: SF-539 CNS
# SK-OV-3 ovarian = tested on: SK-OV-3 ovarian
# SF-268 CNS = tested on: SF-268 CNS
# EKVX NSCLC = tested on: EKVX NSCLC
# KM12 colon = tested on: KM12 colon
# UACC-257 melanoma = tested on: UACC-257 melanoma
# COLO 205 colon = tested on: COLO 205 colon
# LOX IMVI melanoma = tested on: LOX IMVI melanoma
# K-562 leukemia = tested on: K-562 leukemia
# 786-0 renal = tested on: 786-0 renal
# NCI-H226 lung = tested on: NCI-H226 lung
# HCC-2998 colon = tested on: HCC-2998 colon
# SW-620 colon = tested on: SW-620 colon
# A498 renal = tested on: A498 renal
# UO-31 renal = tested on: UO-31 renal
# MALME-3M melanoma = tested on: MALME-3M melanoma
# NCI-H522 lung = tested on: NCI-H522 lung
# DMS 114 small cell lung = tested on: DMS 114 small cell lung
# UACC-62 melanoma = tested on: UACC-62 melanoma
# RXF 393 renal = tested on: RXF 393 renal
# U251 CNS = tested on: U251 CNS
# M14 melanoma = tested on: M14 melanoma
# DLD-1 colon = tested on: DLD-1 colon
# OVCAR-3 ovarian = tested on: OVCAR-3 ovarian
# SNB-75 CNS = tested on: SNB-75 CNS
# XF 498 CNS = tested on: XF 498 CNS
# HOP-18 NSCLC = tested on: HOP-18 NSCLC
# TK-10 renal = tested on: TK-10 renal
# NCI-H460 lung = tested on: NCI-H460 lung
# KM20L2 colon = tested on: KM20L2 colon
# HOP-62 NSCLC = tested on: HOP-62 NSCLC
# HL-60(TB) leukemia = tested on: HL-60(TB) leukemia
# DMS 273 small cell lung = tested on: DMS 273 small cell lung
compound,measurement,setting,value
COc1cc(/C=N/N=C(\N)NO)c(Cl)cc1O,TGI,OVCAR-4 ovarian,> 100 µM
same,TGI,IGROV1 ovarian,> 100 µM
same,TGI,SK-MEL-2 melanoma,> 100 µM
same,TGI,OVCAR-8 ovarian,> 100 µM
same,TGI,CAKI-1 renal,> 100 µM
same,TGI,M19-MEL melanoma,> 100 µM
same,TGI,SNB-78 CNS,> 100 µM
same,TGI,SNB-19 CNS,> 100 µM
same,TGI,MOLT-4 leukemia,> 100 µM
same,TGI,RPMI-8226 leukemia,> 100 µM
same,TGI,HCT-116 colon,> 100 µM
same,TGI,LXFL 529 NSCLC,> 100 µM
same,TGI,HOP-92 NSCLC,73.2 µM
same,TGI,ACHN renal,> 100 µM
same,TGI,A549 NSCLC,> 100 µM
same,TGI,SK-MEL-28 melanoma,> 100 µM
same,TGI,NCI-H23 lung,> 100 µM
same,TGI,HCT-15 colon,> 100 µM
same,TGI,SN12C renal,> 100 µM
same,TGI,OVCAR-5 ovarian,> 100 µM
same,TGI,SF-295 CNS,> 100 µM
same,TGI,CCRF-CEM leukemia,> 100 µM
same,TGI,SK-MEL-5 melanoma,> 100 µM
same,TGI,HT29 colon,> 100 µM
same,TGI,SF-539 CNS,> 100 µM
same,TGI,SK-OV-3 ovarian,> 100 µM
same,TGI,SF-268 CNS,> 100 µM
same,TGI,EKVX NSCLC,> 100 µM
same,TGI,KM12 colon,> 100 µM
same,TGI,UACC-257 melanoma,> 100 µM
same,TGI,COLO 205 colon,> 100 µM
same,TGI,LOX IMVI melanoma,> 100 µM
same,TGI,K-562 leukemia,> 100 µM
same,TGI,786-0 renal,> 100 µM
same,TGI,NCI-H226 lung,> 100 µM
same,TGI,HCC-2998 colon,> 100 µM
same,TGI,SW-620 colon,> 100 µM
same,TGI,A498 renal,> 100 µM
same,TGI,UO-31 renal,> 100 µM
same,TGI,MALME-3M melanoma,> 100 µM
same,TGI,NCI-H522 lung,> 100 µM
same,TGI,DMS 114 small cell lung,> 100 µM
same,TGI,UACC-62 melanoma,> 100 µM
same,TGI,RXF 393 renal,> 100 µM
same,TGI,U251 CNS,> 100 µM
CN(/N=C/c1ccnc2ccccc12)c1c([N+](=O)[O-])cc([N+](=O)[O-])cc1[N+](=O)[O-],TGI,OVCAR-4 ovarian,> 100 µM
same,TGI,M14 melanoma,> 100 µM
same,TGI,DLD-1 colon,> 100 µM
same,TGI,IGROV1 ovarian,> 100 µM
same,TGI,OVCAR-3 ovarian,> 100 µM
same,TGI,SK-MEL-2 melanoma,89.1 µM
same,TGI,OVCAR-8 ovarian,> 100 µM
same,TGI,CAKI-1 renal,> 100 µM
same,TGI,M19-MEL melanoma,> 100 µM
same,TGI,SNB-78 CNS,> 100 µM
same,TGI,SNB-75 CNS,> 100 µM
same,TGI,SNB-19 CNS,> 100 µM
same,TGI,MOLT-4 leukemia,> 100 µM
same,TGI,RPMI-8226 leukemia,> 100 µM
same,TGI,LXFL 529 NSCLC,> 100 µM
same,TGI,XF 498 CNS,> 100 µM
same,TGI,HOP-92 NSCLC,> 100 µM
same,TGI,ACHN renal,> 100 µM
same,TGI,A549 NSCLC,> 100 µM
same,TGI,SK-MEL-28 melanoma,> 100 µM
same,TGI,NCI-H23 lung,> 100 µM
same,TGI,HCT-15 colon,> 100 µM
same,TGI,SN12C renal,> 100 µM
same,TGI,HOP-18 NSCLC,> 100 µM
same,TGI,TK-10 renal,> 100 µM
same,TGI,OVCAR-5 ovarian,> 100 µM
same,TGI,SF-295 CNS,> 100 µM
same,TGI,CCRF-CEM leukemia,> 100 µM
same,TGI,SK-MEL-5 melanoma,> 100 µM
same,TGI,NCI-H460 lung,> 100 µM
same,TGI,HT29 colon,> 100 µM
same,TGI,SF-539 CNS,> 100 µM
same,TGI,SK-OV-3 ovarian,> 100 µM
same,TGI,SF-268 CNS,> 100 µM
same,TGI,EKVX NSCLC,> 100 µM
same,TGI,KM12 colon,> 100 µM
same,TGI,UACC-257 melanoma,> 100 µM
same,TGI,COLO 205 colon,> 100 µM
same,TGI,KM20L2 colon,> 100 µM
same,TGI,LOX IMVI melanoma,> 100 µM
same,TGI,K-562 leukemia,> 100 µM
same,TGI,HOP-62 NSCLC,> 100 µM
same,TGI,786-0 renal,> 100 µM
same,TGI,NCI-H226 lung,> 100 µM
same,TGI,HCC-2998 colon,> 100 µM
same,TGI,HL-60(TB) leukemia,61.2 µM
same,TGI,DMS 273 small cell lung,> 100 µM
same,TGI,SW-620 colon,> 100 µM
same,TGI,A498 renal,> 100 µM
same,TGI,UO-31 renal,> 100 µM
same,TGI,MALME-3M melanoma,99.1 µM
same,TGI,NCI-H522 lung,92.8 µM
same,TGI,DMS 114 small cell lung,> 100 µM
same,TGI,UACC-62 melanoma,> 100 µM
same,TGI,RXF 393 renal,> 100 µM
same,TGI,U251 CNS,> 100 µM
CC(=O)[C@H]1CCC2[C@@H]3CC=C4C[C@@H]([O-])CC[C@]4(C)C3CC[C@@]21C.CC(=O)[C@H]1CCC2[C@@H]3CC=C4C[C@@H]([O-])CC[C@]4(C)C3CC[C@@]21C.CC(=O)[CH-]C(=O)c1ccccc1.CC(=O)[CH-]C(=O)c1ccccc1.Cl.[Ti+4] (stereo partly drawn),GI50,OVCAR-4 ovarian,62 µM
same,TGI,OVCAR-4 ovarian,> 100 µM
same,GI50,M14 melanoma,18.8 µM
same,TGI,M14 melanoma,46.1 µM
same,GI50,DLD-1 colon,27.4 µM
same,TGI,DLD-1 colon,> 100 µM
same,GI50,IGROV1 ovarian,25.9 µM
same,TGI,IGROV1 ovarian,87.1 µM
same,GI50,OVCAR-3 ovarian,39.5 µM
same,TGI,OVCAR-3 ovarian,> 100 µM
same,GI50,SK-MEL-2 melanoma,14.7 µM
same,TGI,SK-MEL-2 melanoma,31 µM
same,GI50,OVCAR-8 ovarian,19.8 µM
same,TGI,OVCAR-8 ovarian,79.2 µM
same,GI50,CAKI-1 renal,19 µM
same,TGI,CAKI-1 renal,97.3 µM
same,GI50,M19-MEL melanoma,43.5 µM
same,TGI,M19-MEL melanoma,> 100 µM
same,GI50,SNB-75 CNS,24.4 µM
same,TGI,SNB-75 CNS,66.2 µM
same,GI50,MOLT-4 leukemia,38.1 µM
same,TGI,MOLT-4 leukemia,> 100 µM
same,GI50,RPMI-8226 leukemia,15 µM
same,TGI,RPMI-8226 leukemia,> 100 µM
same,GI50,HCT-116 colon,25.7 µM
same,TGI,HCT-116 colon,> 100 µM
same,GI50,LXFL 529 NSCLC,32.1 µM
same,TGI,LXFL 529 NSCLC,> 100 µM
same,GI50,ACHN renal,22.8 µM
same,TGI,ACHN renal,99.1 µM
same,GI50,A549 NSCLC,23.6 µM
same,TGI,A549 NSCLC,> 100 µM
same,GI50,NCI-H23 lung,13.4 µM
same,TGI,NCI-H23 lung,29.5 µM
same,GI50,HCT-15 colon,17.6 µM
same,TGI,HCT-15 colon,> 100 µM
same,GI50,SN12C renal,34.1 µM
same,TGI,SN12C renal,> 100 µM
same,GI50,HOP-18 NSCLC,42.9 µM
same,TGI,HOP-18 NSCLC,> 100 µM
same,GI50,TK-10 renal,40.7 µM
same,TGI,TK-10 renal,> 100 µM
same,GI50,OVCAR-5 ovarian,> 100 µM
same,TGI,OVCAR-5 ovarian,> 100 µM
same,GI50,SF-295 CNS,17.4 µM
same,TGI,SF-295 CNS,46.4 µM
same,GI50,CCRF-CEM leukemia,10.6 µM
same,TGI,CCRF-CEM leukemia,> 100 µM
same,GI50,SK-MEL-5 melanoma,18.3 µM
same,TGI,SK-MEL-5 melanoma,> 100 µM
same,GI50,NCI-H460 lung,13.9 µM
same,TGI,NCI-H460 lung,52.6 µM
same,GI50,HT29 colon,14.2 µM
same,TGI,HT29 colon,> 100 µM
same,GI50,SF-539 CNS,9.44 µM
same,GI50,SK-OV-3 ovarian,26.6 µM
same,TGI,SK-OV-3 ovarian,77.4 µM
same,GI50,SF-268 CNS,21.3 µM
same,TGI,SF-268 CNS,92.8 µM
same,GI50,KM12 colon,26.4 µM
same,TGI,KM12 colon,> 100 µM
same,GI50,UACC-257 melanoma,16.2 µM
same,TGI,UACC-257 melanoma,69.7 µM
same,GI50,COLO 205 colon,39.3 µM
same,TGI,COLO 205 colon,> 100 µM
same,GI50,KM20L2 colon,10.8 µM
same,TGI,KM20L2 colon,> 100 µM
same,GI50,LOX IMVI melanoma,29 µM
same,TGI,LOX IMVI melanoma,> 100 µM
same,GI50,K-562 leukemia,12.7 µM
same,TGI,K-562 leukemia,> 100 µM
same,GI50,HOP-62 NSCLC,24.6 µM
same,TGI,HOP-62 NSCLC,67.6 µM
same,GI50,786-0 renal,6.03 µM
same,TGI,786-0 renal,17.9 µM
same,GI50,NCI-H226 lung,16.1 µM
same,TGI,NCI-H226 lung,44.9 µM
same,GI50,HCC-2998 colon,33.2 µM
same,TGI,HCC-2998 colon,85.3 µM
same,GI50,HL-60(TB) leukemia,4.64 µM
same,TGI,HL-60(TB) leukemia,> 100 µM
same,GI50,DMS 273 small cell lung,30.3 µM
same,TGI,DMS 273 small cell lung,> 100 µM
same,GI50,SW-620 colon,39 µM
same,TGI,SW-620 colon,> 100 µM
same,GI50,A498 renal,12.8 µM
same,TGI,A498 renal,27 µM
same,GI50,UO-31 renal,28.9 µM
same,TGI,UO-31 renal,79.3 µM
same,GI50,MALME-3M melanoma,16 µM
same,TGI,MALME-3M melanoma,37.3 µM
same,GI50,NCI-H522 lung,20.3 µM
same,TGI,NCI-H522 lung,66.5 µM
same,GI50,UACC-62 melanoma,15.8 µM
same,TGI,UACC-62 melanoma,56.9 µM
same,GI50,RXF 393 renal,27.1 µM
same,TGI,RXF 393 renal,> 100 µM
